In patent US10870647B2, “Imidazopyridine derivative, method for preparing same, and pharmaceutical composition containing same as active ingredient for preventing or treating cancer” (DAEGU-GYEONGBUK MEDICAL INNOVATION FOUNDATION, priority 2016, dated 2020):

Tests used:
Assay in all cases: Kinase selectivity, scanMAX Kinase assay panel (DiscoverX), % control at 1 uM
Format in all cases: binding
[1] = biological target: T1, scanMAX Kinase assay panel (Homo sapiens, UniProt Q8NEB9); details: VPS34; 1 uM; read-out: Percent Control (%)
T1 construct: purchased DiscoverX
Method in brief: (§1)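 Read-out is percent of control, derived from the signal with compound relative to positive and negative controls: (compound − positive)/(negative − positive) × 100. Each enzyme received test drug at 1 uM in DMSO, and values under 35% count as active.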

[2] = biological target: T2, scanMAX Kinase assay panel (Homo sapiens, UniProt P43403); details: ZAP70; 1 uM; read-out: Percent Control (%)
T2 construct: purchased DiscoverX
T2 sequence (P43403 1-619): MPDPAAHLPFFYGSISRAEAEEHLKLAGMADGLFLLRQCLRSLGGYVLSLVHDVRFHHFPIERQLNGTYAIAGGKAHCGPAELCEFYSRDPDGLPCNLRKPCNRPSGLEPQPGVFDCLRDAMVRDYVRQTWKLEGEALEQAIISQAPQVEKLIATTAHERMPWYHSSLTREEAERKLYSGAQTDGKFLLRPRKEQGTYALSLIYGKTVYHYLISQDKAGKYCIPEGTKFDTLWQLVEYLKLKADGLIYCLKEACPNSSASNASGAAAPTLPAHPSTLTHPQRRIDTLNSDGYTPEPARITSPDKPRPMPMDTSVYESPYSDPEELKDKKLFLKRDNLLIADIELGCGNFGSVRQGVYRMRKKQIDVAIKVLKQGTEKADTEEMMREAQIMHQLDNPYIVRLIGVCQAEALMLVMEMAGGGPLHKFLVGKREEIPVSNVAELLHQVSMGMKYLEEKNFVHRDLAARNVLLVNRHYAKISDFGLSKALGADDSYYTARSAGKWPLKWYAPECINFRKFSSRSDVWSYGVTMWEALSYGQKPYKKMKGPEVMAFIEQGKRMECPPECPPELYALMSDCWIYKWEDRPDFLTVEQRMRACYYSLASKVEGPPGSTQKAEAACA
Method in brief: as §1

[3] = biological target: T3, scanMAX Kinase assay panel (Homo sapiens, UniProt O95819); details: MAP4K4; 1 uM; read-out: Percent Control (%)
T3 construct: purchased DiscoverX
Method in brief: as §1

[4] = biological target: T4, scanMAX Kinase assay panel (Homo sapiens, UniProt O95747); details: OSR1; 1 uM; read-out: Percent Control (%)
T4 construct: purchased DiscoverX
Method in brief: as §1

[5] = biological target: T5, scanMAX Kinase assay panel (Homo sapiens, UniProt O14757); details: CHEK1; 1 uM; read-out: Percent Control (%)
T5 construct: purchased DiscoverX
T5 sequence (O14757 1-476): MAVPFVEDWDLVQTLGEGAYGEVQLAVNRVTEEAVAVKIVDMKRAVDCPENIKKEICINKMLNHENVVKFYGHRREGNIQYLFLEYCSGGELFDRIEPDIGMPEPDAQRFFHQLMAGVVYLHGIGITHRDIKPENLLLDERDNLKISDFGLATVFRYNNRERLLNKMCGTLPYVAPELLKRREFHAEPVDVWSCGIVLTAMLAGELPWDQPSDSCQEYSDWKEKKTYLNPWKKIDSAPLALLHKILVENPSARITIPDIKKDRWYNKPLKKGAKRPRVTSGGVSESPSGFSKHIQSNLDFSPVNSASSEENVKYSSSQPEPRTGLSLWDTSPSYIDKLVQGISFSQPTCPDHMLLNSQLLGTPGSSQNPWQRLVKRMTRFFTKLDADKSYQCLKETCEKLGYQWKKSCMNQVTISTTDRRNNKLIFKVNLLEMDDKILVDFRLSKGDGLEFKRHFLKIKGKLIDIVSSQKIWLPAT
Method in brief: as §1

[6] = biological target: T6, scanMAX Kinase assay panel (Homo sapiens, UniProt Q9H422); details: HIPK3; 1 uM; read-out: Percent Control (%)
T6 construct: purchased DiscoverX
Method in brief: as §1

[7] = biological target: T7, scanMAX Kinase assay panel (Homo sapiens, UniProt P17948); details: FLT1; 1 uM; read-out: Percent Control (%)
T7 construct: purchased DiscoverX
Method in brief: as §1

[8] = biological target: T8, scanMAX Kinase assay panel (Homo sapiens, UniProt Q13177); details: PAK2; 1 uM; read-out: Percent Control (%)
T8 construct: purchased DiscoverX
Method in brief: as §1

[9] = biological target: T9, scanMAX Kinase assay panel (Homo sapiens, UniProt Q14164); details: IKK-epsilon; 1 uM; read-out: Percent Control (%)
T9 construct: purchased DiscoverX
T9 sequence (Q14164 1-716): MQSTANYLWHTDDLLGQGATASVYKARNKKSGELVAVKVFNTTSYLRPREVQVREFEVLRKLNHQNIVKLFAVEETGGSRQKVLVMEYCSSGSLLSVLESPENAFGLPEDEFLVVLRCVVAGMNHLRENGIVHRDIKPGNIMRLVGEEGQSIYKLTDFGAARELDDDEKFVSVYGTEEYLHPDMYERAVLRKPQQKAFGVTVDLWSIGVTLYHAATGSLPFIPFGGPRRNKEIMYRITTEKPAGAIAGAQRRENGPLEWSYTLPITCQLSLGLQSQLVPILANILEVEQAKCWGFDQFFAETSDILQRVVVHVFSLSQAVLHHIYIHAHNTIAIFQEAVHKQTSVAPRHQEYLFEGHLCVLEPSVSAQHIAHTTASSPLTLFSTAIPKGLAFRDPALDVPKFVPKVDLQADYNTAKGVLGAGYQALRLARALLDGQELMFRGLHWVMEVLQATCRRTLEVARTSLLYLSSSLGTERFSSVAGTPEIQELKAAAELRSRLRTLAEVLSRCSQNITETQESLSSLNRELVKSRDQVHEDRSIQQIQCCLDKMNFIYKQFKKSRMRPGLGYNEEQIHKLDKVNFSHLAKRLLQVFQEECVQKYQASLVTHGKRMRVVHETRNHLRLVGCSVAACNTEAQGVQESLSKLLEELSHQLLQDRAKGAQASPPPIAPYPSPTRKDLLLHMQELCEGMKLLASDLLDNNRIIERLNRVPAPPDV
Method in brief: as §1

[10] = biological target: T10, scanMAX Kinase assay panel (Homo sapiens, UniProt Q8N568); details: DCAMKL2; 1 uM; read-out: Percent Control (%)
T10 construct: purchased DiscoverX
Method in brief: as §1

[11] = biological target: T11, scanMAX Kinase assay panel (Homo sapiens, UniProt Q06187); details: BTK; 1 uM; read-out: Percent Control (%)
T11 construct: purchased DiscoverX
Method in brief: as §1

T10 sequence (Q8N568 whole entry): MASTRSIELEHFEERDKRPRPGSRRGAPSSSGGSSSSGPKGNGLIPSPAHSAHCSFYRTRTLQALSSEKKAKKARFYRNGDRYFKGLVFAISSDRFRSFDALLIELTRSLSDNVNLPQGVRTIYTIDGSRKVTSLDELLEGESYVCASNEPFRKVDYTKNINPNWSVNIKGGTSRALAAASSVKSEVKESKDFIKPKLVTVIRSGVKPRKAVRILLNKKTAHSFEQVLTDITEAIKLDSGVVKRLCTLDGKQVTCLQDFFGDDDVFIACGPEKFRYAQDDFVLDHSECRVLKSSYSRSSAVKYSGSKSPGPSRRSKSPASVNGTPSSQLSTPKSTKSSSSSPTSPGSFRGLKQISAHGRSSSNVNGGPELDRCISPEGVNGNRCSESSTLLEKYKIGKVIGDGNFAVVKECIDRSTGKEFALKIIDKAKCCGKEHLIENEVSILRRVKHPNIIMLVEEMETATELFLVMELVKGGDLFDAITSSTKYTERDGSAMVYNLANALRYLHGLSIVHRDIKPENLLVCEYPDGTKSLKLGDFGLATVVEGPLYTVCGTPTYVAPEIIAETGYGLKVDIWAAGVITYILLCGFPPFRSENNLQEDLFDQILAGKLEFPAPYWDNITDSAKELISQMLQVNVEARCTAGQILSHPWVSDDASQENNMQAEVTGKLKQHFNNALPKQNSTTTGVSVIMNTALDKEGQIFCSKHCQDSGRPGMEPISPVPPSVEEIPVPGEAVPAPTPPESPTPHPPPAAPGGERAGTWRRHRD
T3 sequence (O95819 whole entry): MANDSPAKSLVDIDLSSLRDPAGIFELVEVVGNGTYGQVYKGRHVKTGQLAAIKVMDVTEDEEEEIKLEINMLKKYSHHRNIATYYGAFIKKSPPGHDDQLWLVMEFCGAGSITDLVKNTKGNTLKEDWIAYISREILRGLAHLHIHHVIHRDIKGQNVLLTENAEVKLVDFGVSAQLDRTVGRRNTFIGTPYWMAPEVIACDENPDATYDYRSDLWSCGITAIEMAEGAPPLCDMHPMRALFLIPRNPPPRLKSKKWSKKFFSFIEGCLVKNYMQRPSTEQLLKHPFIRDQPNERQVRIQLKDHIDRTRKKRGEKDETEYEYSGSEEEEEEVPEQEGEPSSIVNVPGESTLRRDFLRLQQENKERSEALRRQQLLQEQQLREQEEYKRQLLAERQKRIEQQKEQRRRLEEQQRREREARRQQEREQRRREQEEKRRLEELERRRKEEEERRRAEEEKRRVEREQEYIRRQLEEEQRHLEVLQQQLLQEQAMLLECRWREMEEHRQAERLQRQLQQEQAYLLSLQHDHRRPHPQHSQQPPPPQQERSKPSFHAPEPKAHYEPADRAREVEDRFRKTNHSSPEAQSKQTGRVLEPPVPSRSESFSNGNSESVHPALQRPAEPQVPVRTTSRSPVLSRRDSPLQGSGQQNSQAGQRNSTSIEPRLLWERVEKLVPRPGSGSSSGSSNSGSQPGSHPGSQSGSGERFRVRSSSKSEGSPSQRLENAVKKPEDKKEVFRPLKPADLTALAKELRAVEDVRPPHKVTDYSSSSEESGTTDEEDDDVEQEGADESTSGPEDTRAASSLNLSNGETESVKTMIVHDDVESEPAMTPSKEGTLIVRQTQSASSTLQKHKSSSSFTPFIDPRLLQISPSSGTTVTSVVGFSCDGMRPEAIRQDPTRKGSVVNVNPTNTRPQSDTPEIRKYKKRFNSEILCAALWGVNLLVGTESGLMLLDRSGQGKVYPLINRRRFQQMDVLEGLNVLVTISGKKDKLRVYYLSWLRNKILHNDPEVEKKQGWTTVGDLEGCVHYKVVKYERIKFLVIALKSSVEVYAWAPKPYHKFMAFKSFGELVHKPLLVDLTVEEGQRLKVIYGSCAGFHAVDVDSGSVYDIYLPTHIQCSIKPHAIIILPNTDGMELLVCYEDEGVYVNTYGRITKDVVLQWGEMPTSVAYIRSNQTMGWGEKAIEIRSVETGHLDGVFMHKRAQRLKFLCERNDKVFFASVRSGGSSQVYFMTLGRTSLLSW
T6 sequence (Q9H422 whole entry): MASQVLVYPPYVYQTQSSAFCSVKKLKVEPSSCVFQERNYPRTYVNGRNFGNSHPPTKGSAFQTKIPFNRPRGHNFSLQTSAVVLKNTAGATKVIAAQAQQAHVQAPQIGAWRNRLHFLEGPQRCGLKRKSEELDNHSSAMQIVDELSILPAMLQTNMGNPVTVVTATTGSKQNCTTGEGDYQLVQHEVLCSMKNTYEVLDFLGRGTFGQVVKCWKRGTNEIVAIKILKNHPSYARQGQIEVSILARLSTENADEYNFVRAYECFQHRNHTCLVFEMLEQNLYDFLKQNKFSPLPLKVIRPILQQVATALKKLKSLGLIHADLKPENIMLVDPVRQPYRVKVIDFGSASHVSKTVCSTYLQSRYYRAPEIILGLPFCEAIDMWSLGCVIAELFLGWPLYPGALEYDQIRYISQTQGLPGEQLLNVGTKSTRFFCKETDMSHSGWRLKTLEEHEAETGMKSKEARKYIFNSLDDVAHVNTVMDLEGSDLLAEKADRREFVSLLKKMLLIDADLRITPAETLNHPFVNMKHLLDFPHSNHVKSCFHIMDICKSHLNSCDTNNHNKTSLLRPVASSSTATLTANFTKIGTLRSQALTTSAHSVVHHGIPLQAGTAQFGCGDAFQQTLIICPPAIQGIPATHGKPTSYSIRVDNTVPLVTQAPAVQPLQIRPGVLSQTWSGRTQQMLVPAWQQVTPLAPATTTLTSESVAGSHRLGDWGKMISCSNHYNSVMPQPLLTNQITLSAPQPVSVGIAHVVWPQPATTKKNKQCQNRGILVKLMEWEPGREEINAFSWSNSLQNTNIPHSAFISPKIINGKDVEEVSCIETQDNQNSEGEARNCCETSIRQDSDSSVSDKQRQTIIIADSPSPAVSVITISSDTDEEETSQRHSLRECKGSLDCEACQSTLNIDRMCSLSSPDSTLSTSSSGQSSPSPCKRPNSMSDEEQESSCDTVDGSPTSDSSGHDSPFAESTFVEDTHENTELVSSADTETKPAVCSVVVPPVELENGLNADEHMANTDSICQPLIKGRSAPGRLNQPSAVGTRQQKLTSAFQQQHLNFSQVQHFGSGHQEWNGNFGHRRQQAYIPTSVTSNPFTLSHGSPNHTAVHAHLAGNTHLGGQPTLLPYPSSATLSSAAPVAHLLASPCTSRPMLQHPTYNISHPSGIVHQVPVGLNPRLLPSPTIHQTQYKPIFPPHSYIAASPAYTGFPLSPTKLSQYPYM
T8 sequence (Q13177 whole entry): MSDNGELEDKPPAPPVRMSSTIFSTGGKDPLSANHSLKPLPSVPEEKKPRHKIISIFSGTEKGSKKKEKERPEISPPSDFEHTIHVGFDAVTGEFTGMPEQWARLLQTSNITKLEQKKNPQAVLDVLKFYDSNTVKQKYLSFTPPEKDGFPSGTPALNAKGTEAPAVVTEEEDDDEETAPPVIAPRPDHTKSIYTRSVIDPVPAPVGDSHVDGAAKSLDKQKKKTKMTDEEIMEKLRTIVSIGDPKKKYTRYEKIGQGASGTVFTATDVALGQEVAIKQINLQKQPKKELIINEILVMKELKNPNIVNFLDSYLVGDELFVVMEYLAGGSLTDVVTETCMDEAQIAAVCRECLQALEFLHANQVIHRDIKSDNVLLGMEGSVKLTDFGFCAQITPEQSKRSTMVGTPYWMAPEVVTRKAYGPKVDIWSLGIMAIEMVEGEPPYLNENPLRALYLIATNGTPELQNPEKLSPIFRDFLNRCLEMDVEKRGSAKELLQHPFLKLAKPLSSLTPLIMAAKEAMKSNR
T7 sequence (P17948 27-1338): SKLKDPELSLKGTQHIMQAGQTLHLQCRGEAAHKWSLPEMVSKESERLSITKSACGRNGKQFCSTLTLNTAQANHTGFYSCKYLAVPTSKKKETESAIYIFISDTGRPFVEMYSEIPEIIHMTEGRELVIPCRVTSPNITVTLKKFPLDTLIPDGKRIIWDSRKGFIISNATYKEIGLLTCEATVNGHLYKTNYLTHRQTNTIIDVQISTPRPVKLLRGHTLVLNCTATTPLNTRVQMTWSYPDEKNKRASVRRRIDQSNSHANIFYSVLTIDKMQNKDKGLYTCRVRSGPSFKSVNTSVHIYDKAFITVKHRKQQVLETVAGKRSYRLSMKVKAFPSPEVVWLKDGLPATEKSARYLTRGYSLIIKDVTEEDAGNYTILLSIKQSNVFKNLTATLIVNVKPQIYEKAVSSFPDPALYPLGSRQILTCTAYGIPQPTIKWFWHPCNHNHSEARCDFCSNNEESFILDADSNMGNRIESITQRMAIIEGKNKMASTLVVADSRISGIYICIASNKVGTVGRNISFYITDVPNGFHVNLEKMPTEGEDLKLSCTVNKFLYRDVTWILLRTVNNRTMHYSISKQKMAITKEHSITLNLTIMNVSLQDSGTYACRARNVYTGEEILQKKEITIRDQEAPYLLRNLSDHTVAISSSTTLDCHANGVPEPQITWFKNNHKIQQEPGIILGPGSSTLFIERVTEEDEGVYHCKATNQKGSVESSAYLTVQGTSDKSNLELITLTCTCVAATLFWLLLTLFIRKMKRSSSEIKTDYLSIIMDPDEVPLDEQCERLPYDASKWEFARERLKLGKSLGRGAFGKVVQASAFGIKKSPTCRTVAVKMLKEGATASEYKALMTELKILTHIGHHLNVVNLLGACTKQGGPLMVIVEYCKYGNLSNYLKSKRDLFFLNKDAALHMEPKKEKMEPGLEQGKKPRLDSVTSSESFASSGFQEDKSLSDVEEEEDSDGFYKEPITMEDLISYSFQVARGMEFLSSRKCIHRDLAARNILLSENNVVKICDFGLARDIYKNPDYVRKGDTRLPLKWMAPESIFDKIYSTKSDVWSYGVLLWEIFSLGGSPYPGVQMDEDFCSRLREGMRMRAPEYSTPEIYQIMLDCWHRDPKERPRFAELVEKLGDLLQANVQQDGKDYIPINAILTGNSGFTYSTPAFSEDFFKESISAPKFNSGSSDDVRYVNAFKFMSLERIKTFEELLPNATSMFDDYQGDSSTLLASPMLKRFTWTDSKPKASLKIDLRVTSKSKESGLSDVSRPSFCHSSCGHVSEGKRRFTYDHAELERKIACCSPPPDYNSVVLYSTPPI

With `Cc1ccc(C(=O)Nc2ccc(CN3CCN(C)CC3)c(C(F)(F)F)c2)cc1C#Cc1cnc2c(Nc3cnn(C)c3)cccn12` [Example 1, 4-methyl-3-((8-((1-methyl-1H-pyrazol-4-yl)amino)imidazo[1,2-a]pyridin-3-yl)ethynyl)-N-(4-((4-methylpiperazin-1-yl)methyl)-3-(trifluoromethyl)phenyl)benzamide] as the compound, how does the remaining binding at 1 µM [1] read?
The remaining binding at 1 µM was 100%.

What about the remaining binding at 1 µM [2] of the same compound?
The remaining binding at 1 µM was 26%.

What about the remaining binding at 1 µM [3] of the same compound?
Its remaining binding at 1 µM is 1%.

What about the remaining binding at 1 µM [4] of the same compound?
Its remaining binding at 1 µM is 88%.

And the remaining binding at 1 µM [5]?
Its remaining binding at 1 µM is 90%.

And the remaining binding at 1 µM [6]?
Its remaining binding at 1 µM is 54%.

And the remaining binding at 1 µM [7]?
The remaining binding at 1 µM was 3%.

And the remaining binding at 1 µM [8]?
Its remaining binding at 1 µM is 64%.

And the remaining binding at 1 µM [9]?
The remaining binding at 1 µM was 66%.

What about the remaining binding at 1 µM [10] of the same compound?
The remaining binding at 1 µM was 91%.

And the remaining binding at 1 µM [11]?
The remaining binding at 1 µM was 1%.

Which remaining binding at 1 µM [1] does the source give for `Cc1cn(-c2cc(NC(=O)c3ccc(C)c(C#Cc4cnc5c(Nc6cnn(C)c6)cccn45)c3)cc(C(F)(F)F)c2)cn1` [Example 12, 4-methyl-N-(3-(4-methyl-1H-imidazol-1-yl)-5-(trifluoromethyl)phenyl)-3-((8-((1-methyl-1H-pyrazol-4-yl)amino)imidazo[1,2-a]pyridin-3-yl)ethynyl)benzamide] here?
Its remaining binding at 1 µM is 96%.

What about the remaining binding at 1 µM [2] of the same compound?
The remaining binding at 1 µM was 100%.

And the remaining binding at 1 µM [3]?
Its remaining binding at 1 µM is 4%.

And the remaining binding at 1 µM [4]?
Its remaining binding at 1 µM is 100%.

And the remaining binding at 1 µM [5]?
Its remaining binding at 1 µM is 100%.

What about the remaining binding at 1 µM [6] of the same compound?
Its remaining binding at 1 µM is 84%.

What about the remaining binding at 1 µM [7] of the same compound?
The remaining binding at 1 µM was 16%.

What about the remaining binding at 1 µM [8] of the same compound?
Its remaining binding at 1 µM is 54%.

And the remaining binding at 1 µM [9]?
The remaining binding at 1 µM was 100%.

And the remaining binding at 1 µM [10]?
The remaining binding at 1 µM was 78%.

And the remaining binding at 1 µM [11]?
The remaining binding at 1 µM was 37%.

With `Cc1ccc(NC(=O)C2(C(=O)Nc3ccc(F)cc3)CC2)cc1C#Cc1cnc2c(Nc3cnn(C(C)C)c3)cccn12` [Example 78] as the compound, how does the remaining binding at 1 µM [1] read?
The remaining binding at 1 µM was 80%.

And the remaining binding at 1 µM [2]?
Its remaining binding at 1 µM is 96%.

What about the remaining binding at 1 µM [3] of the same compound?
The remaining binding at 1 µM was 99%.

And the remaining binding at 1 µM [4]?
Its remaining binding at 1 µM is 100%.

What about the remaining binding at 1 µM [5] of the same compound?
The remaining binding at 1 µM was 98%.

What about the remaining binding at 1 µM [6] of the same compound?
Its remaining binding at 1 µM is 100%.

What about the remaining binding at 1 µM [7] of the same compound?
The remaining binding at 1 µM was 84%.

What about the remaining binding at 1 µM [8] of the same compound?
Its remaining binding at 1 µM is 100%.

What about the remaining binding at 1 µM [9] of the same compound?
The remaining binding at 1 µM was 100%.

And the remaining binding at 1 µM [10]?
The remaining binding at 1 µM was 100%.

And the remaining binding at 1 µM [11]?
Its remaining binding at 1 µM is 100%.
